According to ChEMBL document CHEMBL1201862, “PubChem BioAssay data set” (2004):
Active and inactive are the calls of the source.

Columns and labels:
[1] = biological target: T1, Mu-type opioid receptor (Homo sapiens, UniProt P35372); experiment: HTS Image-Based Screen for Agonists of the MOR Receptor. [Related pubchem assays (depositor defined):AID1777, AID1785, AID1786, AID2133]; format: functional
[2] = biological target: T2, Kappa-type opioid receptor (Homo sapiens, UniProt P41145); format: functional
[3] = biological target: T2, Kappa-type opioid receptor; format: functional; remark: listed apart in the source
[4] = biological target: Beta-galactosidase (Escherichia coli, UniProt Q8VNN2); format: functional
[5] = biological target: T3, Delta-type opioid receptor (Homo sapiens, UniProt P41143); experiment: HTS Image-Based Screen for Agonists of the DOR Receptor. [Related pubchem assays (depositor defined):AID1777, AID1786, AID2133]; format: functional
[6] = biological target: T3, Delta-type opioid receptor; experiment: HTS Image-Based Screen for Antagonists of the DOR Receptor. [Related pubchem assays (depositor defined):AID1777, AID1785, AID1786, AID2133]; format: functional
[7] = biological target: T2, Kappa-type opioid receptor; experiment: SAR analysis of small molecule agonists of the kappa opioid receptor via a luminescent beta-arrestin assay - Set 3. [Related pubchem assays (depositor defined):AID1777, AID1785, AID1786, AID1966, AID2133, AID2136, AID2284, AID2500]; format: functional
[8] = biological target: T3, Delta-type opioid receptor; experiment: SAR Analysis of Agonists of the DOR Receptor using an Image-Based Assay - Set 3. [Related pubchem assays (depositor defined):AID1777, AID1786]; format: functional
[9] = biological target: T1, Mu-type opioid receptor; experiment: SAR Analysis of Agonists of the MOR Receptor using an Image-Based Assay - Set 3. [Related pubchem assays (depositor defined):AID1777, AID1785, AID1786, AID1966, AID2133, AID2136, AID2284, AID2285, AID2352]; format: functional
[10] = biological target: T2, Kappa-type opioid receptor; experiment: KOR agonist analogs, arrestin-GFP redistribution, SAR follow-up, imaging, image-based, set 3 (AID 488833); format: functional
[11] = biological target: Prothrombin (Bos taurus, UniProt P00735); experiment: thrombin inhibition, dose response, biochemical, fluorescence polarization, uHTS hits (AID 602369); format: functional
[12] = biological target: T4, SUMO-activating enzyme (Homo sapiens, UniProt Q9UBT2); experiment: inhibitors of in vitro SUMOylation cascade, primary screen, biochemical, HTRF, uHTS (AID 2006); format: protein-complex assay
[13] = biological target: 26S proteasome non-ATPase regulatory subunit 14 (Homo sapiens, UniProt O00487); experiment: inhibition of proteasome subunit RPN11 – biochemical, fluorescence polarization, uHTS hits, confirmation (AID 602368); format: functional
[14] = biological target: T4, SUMO-activating enzyme; experiment: SUMOylation inhibitor hit validation, confirmation, SUMOylation inhibitor project, biochemical, AlphaScreen (AID 2018); format: functional
[15] = biological target: T5, Small ubiquitin-related modifier 1 (Homo sapiens, UniProt P63165); experiment: inhibitors of SUMO1 peptide binding, dose response, biochemical, fluorescence polarization, uHTS hits (AID 624382); format: functional; details: read-out: IC50_Mean
[16] = biological target: T6, Dual specificity protein phosphatase 6 (Rattus norvegicus, UniProt Q64346); experiment: MKP-3 phosphatase inhibitors, primary screen, biochemical, rat enzyme, in vitro (AID 425)
T6 sequence (Q64346 whole entry): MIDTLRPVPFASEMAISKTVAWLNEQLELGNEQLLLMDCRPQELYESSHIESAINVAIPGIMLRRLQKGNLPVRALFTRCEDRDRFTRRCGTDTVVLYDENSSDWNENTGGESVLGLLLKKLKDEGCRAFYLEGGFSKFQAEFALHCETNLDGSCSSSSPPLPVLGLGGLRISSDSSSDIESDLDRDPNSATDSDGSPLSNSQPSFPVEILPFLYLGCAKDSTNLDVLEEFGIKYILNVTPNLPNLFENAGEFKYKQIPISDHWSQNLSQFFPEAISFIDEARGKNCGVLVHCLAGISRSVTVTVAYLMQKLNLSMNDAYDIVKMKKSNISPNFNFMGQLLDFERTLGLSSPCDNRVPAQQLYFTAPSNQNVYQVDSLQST

[17] = biological target: T5, Small ubiquitin-related modifier 1; experiment: inhibitors of SUMO1 partner interactions, dose response, biochemical, FRET (AID 624383); format: functional; details: read-out: IC50_Mean
[18] = biological target: T7, Dual specificity protein phosphatase 3 (Homo sapiens, UniProt P51452); experiment: VHR1 phosphatase inhibitors, biochemical (AID 1878)
[19] = biological target: T7, Dual specificity protein phosphatase 3; experiment: VHR1 phosphatase inhibitors, primary screen, biochemical, absorbance, uHTS (AID 1654)
[20] = biological target: 72 kDa type IV collagenase (Homo sapiens, UniProt P08253); experiment: Dose Response validation of uHTS RPN11 inhibitor hits using a MMP-2 Fluorescence assay.; format: functional
[21] = Luminescence Cell-Based Dose Confirmation HTS to Identify Activators of 5'UTR Stem-Loop Driven Alpha-Synuclein mRNA Translation in H4 Neuroglioblastoma Cells. [Related pubchem assays: 1829 (Project Summary), 1814 (Primary HTS)]; format: functional
[22] = biological target: T8, Tyrosine-protein phosphatase non-receptor type 22 (Homo sapiens, UniProt Q9Y2R2); format: functional
[23] = tested on: H4; experiment: Luminescence Cell-Based Dose Response HTS to Identify Activators of 5'UTR Stem-Loop Driven Prion Protein mRNA Translation in H4 Neuroglioblastoma Cells. [Related pubchem assays: 1829 (Project Summary), 1814 (Primary HTS)]; format: functional; details: Homo sapiens
[24] = biological target: T9, Tyrosine-protein phosphatase non-receptor type 7 (Homo sapiens, UniProt P35236); format: functional
T9 sequence (P35236 whole entry): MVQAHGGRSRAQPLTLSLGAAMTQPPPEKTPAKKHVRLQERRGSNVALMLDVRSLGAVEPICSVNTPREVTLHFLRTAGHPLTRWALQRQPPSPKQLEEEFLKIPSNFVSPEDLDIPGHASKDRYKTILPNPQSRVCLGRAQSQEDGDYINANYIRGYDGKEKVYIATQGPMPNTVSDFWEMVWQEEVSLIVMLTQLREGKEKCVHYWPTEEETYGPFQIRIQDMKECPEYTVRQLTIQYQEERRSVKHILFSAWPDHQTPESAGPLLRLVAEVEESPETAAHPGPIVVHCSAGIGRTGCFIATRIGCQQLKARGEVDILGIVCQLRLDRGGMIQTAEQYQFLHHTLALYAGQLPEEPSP

[25] = Luminescence Cell-Based Dose Response HTS to Identify Activators of Luciferase Translation or Activity in H4 […] Cells. [Related pubchem assays: 1829 (Project Summary), 1814 (Primary HTS)]; format: functional
[26] = biological target: T8, Tyrosine-protein phosphatase non-receptor type 22; format: functional; remark: listed apart in the source

T3 sequence (P41143 whole entry): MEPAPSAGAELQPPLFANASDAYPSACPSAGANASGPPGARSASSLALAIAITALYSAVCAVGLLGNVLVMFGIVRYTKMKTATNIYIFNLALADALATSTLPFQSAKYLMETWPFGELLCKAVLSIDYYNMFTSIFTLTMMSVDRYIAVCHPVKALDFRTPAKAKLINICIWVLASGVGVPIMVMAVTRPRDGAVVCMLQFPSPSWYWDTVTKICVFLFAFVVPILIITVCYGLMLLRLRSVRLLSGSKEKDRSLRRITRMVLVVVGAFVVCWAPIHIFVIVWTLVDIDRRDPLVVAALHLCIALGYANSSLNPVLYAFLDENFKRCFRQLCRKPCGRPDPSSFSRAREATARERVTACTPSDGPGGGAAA
T2 sequence (P41145 whole entry): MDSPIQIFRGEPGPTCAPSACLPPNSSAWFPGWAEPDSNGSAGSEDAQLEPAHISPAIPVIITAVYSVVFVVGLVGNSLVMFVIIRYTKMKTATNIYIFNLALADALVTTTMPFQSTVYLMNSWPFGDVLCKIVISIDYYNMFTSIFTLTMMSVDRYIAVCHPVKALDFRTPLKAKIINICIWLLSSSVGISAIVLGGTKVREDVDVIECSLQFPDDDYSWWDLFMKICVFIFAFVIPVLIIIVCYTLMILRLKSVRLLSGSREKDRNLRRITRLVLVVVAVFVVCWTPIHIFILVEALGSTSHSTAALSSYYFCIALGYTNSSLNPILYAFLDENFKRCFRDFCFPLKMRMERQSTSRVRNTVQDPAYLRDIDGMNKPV
T7 sequence (P51452 whole entry): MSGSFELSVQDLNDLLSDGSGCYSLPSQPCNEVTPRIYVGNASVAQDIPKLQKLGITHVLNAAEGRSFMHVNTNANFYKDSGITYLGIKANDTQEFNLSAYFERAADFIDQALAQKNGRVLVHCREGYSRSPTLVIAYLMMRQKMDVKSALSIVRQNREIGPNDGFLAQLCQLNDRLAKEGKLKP
T8 sequence (Q9Y2R2 whole entry): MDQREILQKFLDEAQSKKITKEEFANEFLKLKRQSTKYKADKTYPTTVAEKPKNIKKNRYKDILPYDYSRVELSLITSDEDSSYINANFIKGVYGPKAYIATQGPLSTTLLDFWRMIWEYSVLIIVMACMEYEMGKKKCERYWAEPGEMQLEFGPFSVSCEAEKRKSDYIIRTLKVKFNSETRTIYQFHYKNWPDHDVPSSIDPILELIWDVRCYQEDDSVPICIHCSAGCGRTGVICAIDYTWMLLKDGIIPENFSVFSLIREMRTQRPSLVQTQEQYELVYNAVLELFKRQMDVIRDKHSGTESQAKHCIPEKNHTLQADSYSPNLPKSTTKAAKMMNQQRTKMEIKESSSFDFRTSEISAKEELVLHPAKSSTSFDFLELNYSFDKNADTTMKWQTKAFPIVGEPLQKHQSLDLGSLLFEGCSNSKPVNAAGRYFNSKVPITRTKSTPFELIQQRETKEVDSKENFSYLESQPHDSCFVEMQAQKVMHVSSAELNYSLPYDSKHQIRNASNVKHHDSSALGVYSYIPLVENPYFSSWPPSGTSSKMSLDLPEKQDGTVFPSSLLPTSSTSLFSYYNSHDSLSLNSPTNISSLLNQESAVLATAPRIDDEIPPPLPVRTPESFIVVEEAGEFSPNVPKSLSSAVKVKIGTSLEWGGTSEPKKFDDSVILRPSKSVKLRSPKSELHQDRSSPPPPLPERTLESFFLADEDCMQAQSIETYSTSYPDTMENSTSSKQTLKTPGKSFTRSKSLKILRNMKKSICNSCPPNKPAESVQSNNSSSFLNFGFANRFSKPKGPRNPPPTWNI
T1 sequence (P35372 whole entry): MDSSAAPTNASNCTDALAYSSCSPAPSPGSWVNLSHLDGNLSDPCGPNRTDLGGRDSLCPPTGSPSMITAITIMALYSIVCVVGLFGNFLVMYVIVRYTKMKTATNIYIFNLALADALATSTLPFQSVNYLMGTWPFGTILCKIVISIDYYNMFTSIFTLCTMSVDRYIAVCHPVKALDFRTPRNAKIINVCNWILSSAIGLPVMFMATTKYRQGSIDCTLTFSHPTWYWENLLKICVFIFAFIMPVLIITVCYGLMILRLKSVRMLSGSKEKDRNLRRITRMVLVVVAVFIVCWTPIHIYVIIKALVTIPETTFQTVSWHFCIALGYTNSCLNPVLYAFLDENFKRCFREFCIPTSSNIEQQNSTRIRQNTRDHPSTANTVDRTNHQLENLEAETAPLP
T5 sequence (P63165 whole entry): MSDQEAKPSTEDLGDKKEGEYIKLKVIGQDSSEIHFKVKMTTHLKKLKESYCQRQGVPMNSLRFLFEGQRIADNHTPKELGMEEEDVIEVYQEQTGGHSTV
T4 sequence (Q9UBE0 whole entry): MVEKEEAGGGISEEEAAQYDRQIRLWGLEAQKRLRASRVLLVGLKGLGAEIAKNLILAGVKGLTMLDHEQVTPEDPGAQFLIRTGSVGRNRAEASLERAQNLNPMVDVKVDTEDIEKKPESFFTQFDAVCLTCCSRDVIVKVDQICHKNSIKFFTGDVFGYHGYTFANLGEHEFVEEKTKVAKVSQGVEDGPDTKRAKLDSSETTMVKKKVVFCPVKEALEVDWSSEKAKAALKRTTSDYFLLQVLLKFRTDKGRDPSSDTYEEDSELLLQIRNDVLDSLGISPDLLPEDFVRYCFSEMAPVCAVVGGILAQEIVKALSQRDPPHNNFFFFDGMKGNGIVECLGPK
T4 sequence (Q9UBT2 whole entry): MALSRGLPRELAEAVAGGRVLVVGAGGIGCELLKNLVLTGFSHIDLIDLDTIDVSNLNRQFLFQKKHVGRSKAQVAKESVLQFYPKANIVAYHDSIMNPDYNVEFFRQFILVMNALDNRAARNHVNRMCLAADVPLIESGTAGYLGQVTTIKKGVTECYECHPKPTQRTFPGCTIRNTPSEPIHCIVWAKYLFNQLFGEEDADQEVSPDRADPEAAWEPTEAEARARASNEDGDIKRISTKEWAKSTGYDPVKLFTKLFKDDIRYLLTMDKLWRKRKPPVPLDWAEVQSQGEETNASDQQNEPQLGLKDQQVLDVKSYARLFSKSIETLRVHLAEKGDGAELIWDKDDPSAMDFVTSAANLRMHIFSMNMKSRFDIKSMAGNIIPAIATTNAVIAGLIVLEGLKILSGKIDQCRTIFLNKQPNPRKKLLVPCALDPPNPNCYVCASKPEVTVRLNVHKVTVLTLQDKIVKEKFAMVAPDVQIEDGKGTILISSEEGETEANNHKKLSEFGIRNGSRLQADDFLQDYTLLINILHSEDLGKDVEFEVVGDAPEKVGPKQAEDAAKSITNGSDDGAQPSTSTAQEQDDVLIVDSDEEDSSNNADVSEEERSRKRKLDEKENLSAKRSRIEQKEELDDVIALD
Chain of 72 kDa type IV collagenase (P08253 whole entry): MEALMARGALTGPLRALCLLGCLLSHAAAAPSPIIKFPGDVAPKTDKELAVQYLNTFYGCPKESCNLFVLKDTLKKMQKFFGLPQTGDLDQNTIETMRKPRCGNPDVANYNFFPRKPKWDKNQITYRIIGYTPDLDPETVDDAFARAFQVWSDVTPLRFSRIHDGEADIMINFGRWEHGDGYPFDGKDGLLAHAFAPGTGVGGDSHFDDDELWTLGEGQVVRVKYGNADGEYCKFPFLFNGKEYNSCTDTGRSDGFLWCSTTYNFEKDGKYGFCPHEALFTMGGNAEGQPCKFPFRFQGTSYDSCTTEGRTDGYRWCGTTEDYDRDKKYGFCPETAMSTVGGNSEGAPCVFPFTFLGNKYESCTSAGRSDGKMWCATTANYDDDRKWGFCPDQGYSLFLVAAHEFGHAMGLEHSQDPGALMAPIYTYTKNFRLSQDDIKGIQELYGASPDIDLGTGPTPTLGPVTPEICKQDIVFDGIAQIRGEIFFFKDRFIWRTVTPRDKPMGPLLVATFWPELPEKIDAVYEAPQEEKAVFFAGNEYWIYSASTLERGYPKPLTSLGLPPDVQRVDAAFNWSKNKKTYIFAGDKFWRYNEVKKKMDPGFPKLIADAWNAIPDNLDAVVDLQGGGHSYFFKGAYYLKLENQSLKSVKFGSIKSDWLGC
Chain of 26S proteasome non-ATPase regulatory subunit 14 (O00487 whole entry): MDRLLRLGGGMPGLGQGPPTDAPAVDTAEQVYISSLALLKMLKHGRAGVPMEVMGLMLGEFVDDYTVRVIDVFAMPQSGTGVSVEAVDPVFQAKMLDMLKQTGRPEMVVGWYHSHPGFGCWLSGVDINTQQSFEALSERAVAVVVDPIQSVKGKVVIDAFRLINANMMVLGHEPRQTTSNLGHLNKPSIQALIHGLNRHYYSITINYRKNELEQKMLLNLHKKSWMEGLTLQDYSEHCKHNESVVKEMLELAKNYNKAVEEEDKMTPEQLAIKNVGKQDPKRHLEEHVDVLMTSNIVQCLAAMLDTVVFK

Cc1nc(-c2ccccn2)[nH]c(=S)c1Cl
EC50 [1]: > 32 µM (inactive)
IC50 [2]: > 32 µM
IC50 [3]: 20.3 µM (inactive)
EC50 [4]: > 31.5 µM (inactive)
EC50 [5]: > 32 µM (inactive)
IC50 [6]: > 32 µM (inactive)

FC(F)(F)c1ccc(CSc2nnc(-c3ccccn3)n2Cc2cccs2)cc1
EC50 [7]: 1.23 µM (active)
EC50 [8]: > 32 µM (inactive)
EC50 [9]: > 32 µM (inactive)
EC50 [10]: 0.621 µM (active)

O=C(CSc1nnc(SCc2ccc(Cl)cc2)s1)N/N=C/c1c[nH]c2ccccc12
IC50 [11]: 82.5 µM (active)
IC50 [12]: 48.3 µM (active)
IC50 [13]: 9.99 µM (active)
IC50 [14]: 1.54 µM (active)
IC50 [15]: > 66.6 µM (inactive)
IC50 [16]: 76.5 µM (active)
IC50 [17]: 2.02 µM (active)
IC50 [18]: 3.82 µM (active)
IC50 [19]: 16.2 µM (active)
IC50 [20]: > 100 µM (inactive)

O=C1C2C(C(=O)N1/N=C/c1cccc([N+](=O)[O-])c1)C1C=CC2C12CC2 (stereo unspecified)
EC50 [21]: 15.4 µM (active)
IC50 [22]: > 79.4 µM (inactive)
EC50 [23]: 87.7 µM (active)
IC50 [24]: > 79.4 µM (inactive)
EC50 [25]: 7.44 µM (active)
IC50 [26]: > 79.4 µM (inactive)
